Values of other authors as cited in patent US20080293724A1, “Methods Using Hydralazine Compounds and Isosorbide Dinitrate or Isosorbide Mononitrate” (NITROMED, INC., priority 2006, published 2008).
Counter-ions that a name gives are not always drawn.

solubility in alcohol (alcohol) | solubility in ether (ether) | SMILES | solubility in organic solvents (organic solvents such as ethanol, ether and chloroform) | solubility in water
 |  | O=[N+]([O-])O[C@H]1CO[C@H]2[C@@H]1OC[C@H]2O[N+](=O)[O-] [isosorbide dinitrate, 1,4,3,6-dianhydro-D-glucitol-2,5-dinitrate] | freely soluble | sparingly soluble
slightly soluble | very slightly soluble | NNc1nncc2ccccc12 [Hydralazine hydrochloride, hydralazine hydrochloride] |  | soluble
